# The source made the active and inactive calls. The rule behind the calls is not given here.
# Assay: Antioxidant activity assessed as hydroxyl radical scavenging activity at 10 mM at pH 7 by fenton reaction
# Assay type: functional
row,SMILES,Activity
1,CNc1c(C)n(C)n(-c2ccccc2)c1=O,Active
2,Cc1c(N)c(=O)n(-c2ccccc2)n1C,Active
3,Cc1c(N(C)C)c(=O)n(-c2ccccc2)n1C,Active
